Experiments:
miR-29c = assay: qRT-PCR of miR-29 expression level in H9c2 cells; assay type: cell-based, rat
Procedure: (§1) The cardiac muscle cell H9c2 was maintained in complete growth medium, supplemented with 10% FBS, penicillin G (100 IU/ml). Cells were incubated at 37° C. in a humidified atmosphere (5% CO2/95% air). Passages 5-9 were used for all experiments. Exponentially growing H9c2 cells were seeded at 1×10^5 per 100 mm plate and incubated until 60-70% confluent. Cells were treated with: 1) vehicle alone (2% ethanol); 2) 10 nM PIO; 3) 1 μM GW9662; 4) 10 nM PIO+1 μM GW9662. PIO was dissolved in 70% ethanol. 24 hours later, cells were harvested and total RNA enriched with small RNAs was isolated using mirVana miRNA Isolation Kit (Ambion). MiR-29 levels were measured using the mirVana qRT-PCR miRNA Detection Kit (Ambion). Reactions containing mirVana qRT-PCR Primer Sets were specific for rat miR-29. The appropriate cycle threshold (Ct) was determined by using the automatic baseline determination feature. The expression of miR-29 between RNA samples was calculated. Data were normalized by evaluating U6 expression.

miR-29a = assay: qRT-PCR of miR-29 expression level in H9c2 cells; assay type: cell-based, rat
Procedure: as §1

[1] = 10 nM PIO + 1 μM GW9662, 24 hours
[2] = single agent, 24 hours, 10 nM PIO or 1 μM GW9662, vs vehicle control

O=C(Nc1ccccc1)c1cc([N+](=O)[O-])ccc1Cl [GW9662] was tested, and the “effect of PIO on miR-29c level in H9c2 cells (qRT-PCR)” value (miR-29c; [1]) was “block the effect of PIO”, the “miR-29c level in H9c2 cells (qRT-PCR)” value (miR-29c; [2]) was “no effect” and the “effect of PIO on miR-29a level in H9c2 cells (qRT-PCR)” value (miR-29a; [1]) was “block the effect of PIO”. The “miR-29a level in H9c2 cells (qRT-PCR)” value (miR-29a; [2]) was “no effect”.

— patent publication US20100292278A1, “Methods of treating vascular disease and injury” (priority 2009, published 2010)
